Data taken from patent publication US20240238425A1, “HSD17B13 Inhibitors and/or Degraders” (Pfizer Inc., priority 2022, published 2024).
Counter-ions that a name gives are not always drawn.

Test system: HiBiT-HSD17β13 fusion protein (N-terminal HiBiT-tagged HSD17β13 isoform D) in Huh7 HiBiT-HSD17β13 OE cells
Experiment: Whole-cell Huh7-HSD17B13 HiBiT assay (degrader potency and maximal efficacy, luminescence readout)
Type: cell-based, human
Conditions: 24 hour incubation, geometric mean, * = geometric mean for all forms tested (parent and salt forms); for DC50: read-out: Huh7_HIBIT-HSD17β13_DC50 GMean DC50; for Huh7_HIBIT-HSD17β13_DC50 GMean Asymptote Maximum: max. concentration 1 μM
Outline: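 Luminescence from lytic HiBiT detection tracked residual HiBiT-HSD17β13 (isoform D, N-terminal tag) in a stable Huh7 overexpressing clone after 24 h compound treatment at 37° C, 11 concentrations up to 1 μM final. Percent effect used DMSO (zero) and parental Huh7 (high) wells; four-parameter fit gave 50% degradation; viability checked by CellTiter-Glo.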

| DC50 [nM] | SMILES | Huh7_HIBIT-HSD17β13_DC50 GMean Asymptote Maximum [%] |
| --- | --- | --- |
| 1.3 | O=C1CCN(c2cc(C(=O)N3CCN(CC4CCN(c5ncc(-c6ccc7cn([C@H]8CC[C@H](CNC(=O)c9cc(F)c(O)c(F)c9F)CC8)nc7c6)cn5)CC4)CC3)ccc2Cl)C(=O)N1 [Example 108, N-{[(1r,4r)-4-(6-{2-[4-({4-[4-chloro-3-(2,4-dioxo-1,3-diazinan-1-yl)benzoyl]piperazin-1-yl}methyl)piperidin-1-yl]pyrimidin-5-yl}-2H-indazol-2-yl)cyclohexyl]methyl}-2,3,5-trifluoro-4-hydroxybenzamide] | 80 |
| 1.1 | Cc1ccc(C(=O)N2CCC3(CCC(N4CCN(c5ccc6cn([C@H]7CC[C@H](CNC(=O)c8cc(F)c(O)c(F)c8)CC7)nc6c5)CC4)CC3)CC2)cc1N1CCC(=O)NC1=O [Example 109, N-({(1r,4r)-4-[6-(4-{3-[3-(2,4-dioxo-1,3-diazinan-1-yl)-4-methylbenzoyl]-3-azaspiro[5.5]undecan-9-yl}piperazin-1-yl)-2H-indazol-2-yl]cyclohexyl}methyl)-3,5-difluoro-4-hydroxybenzamide] | 81 |
| 2.9 | O=C1CCN(c2cc(C(=O)N3CCC4(CCC(N5CCN(c6ccc7cn([C@H]8CC[C@H](CNC(=O)c9cc(F)c(O)c(F)c9)CC8)nc7c6)CC5)CC4)CC3)ccc2Cl)C(=O)N1 [Example 110, N-({(1r,4r)-4-[6-(4-{3-[4-chloro-3-(2,4-dioxo-1,3-diazinan-1-yl)benzoyl]-3-azaspiro[5.5]undecan-9-yl}piperazin-1-yl)-2H-indazol-2-yl]cyclohexyl}methyl)-3,5-difluoro-4-hydroxybenzamide] | 77 |
| 0.85 | Cc1ccc(C(=O)N2CCC3(CCC(N4CCN(c5ccc6cn([C@H]7CC[C@H](CNC(=O)c8cc(F)c(O)c(F)c8F)CC7)nc6c5)CC4)CC3)CC2)cc1N1CCC(=O)NC1=O [Example 111, N-({(1r,4r)-4-[6-(4-{3-[3-(2,4-dioxo-1,3-diazinan-1-yl)-4-methylbenzoyl]-3-azaspiro[5.5]undecan-9-yl}piperazin-1-yl)-2H-indazol-2-yl]cyclohexyl}methyl)-2,3,5-trifluoro-4-hydroxybenzamide, trifluoroacetate salt] | 80 |
| 0.97 | Cc1ccc(C(=O)N2CCC3(CCC(n4cc(-c5ccc6cn([C@H]7CC[C@H](CNC(=O)c8cc(F)c(O)c(F)c8F)CC7)nc6c5)cn4)CC3)CC2)cc1N1CCC(=O)NC1=O [Example 112, N-({(1r,4r)-4-[6-(1-{3-[3-(2,4-dioxo-1,3-diazinan-1-yl)-4-methylbenzoyl]-3-azaspiro[5.5]undecan-9-yl}-1H-pyrazol-4-yl)-2H-indazol-2-yl]cyclohexyl}methyl)-2,3,5-trifluoro-4-hydroxybenzamide, formate salt] | 81 |
| 1.4 | Cc1ccc(C(=O)N2CCC3(CCC(N4CCN(c5ccc6cn([C@H]7CC[C@H](CNC(=O)c8cc(F)c(O)c(F)c8F)CC7)nc6c5)CC4)C3)CC2)cc1N1CCC(=O)NC1=O (stereo partly drawn) [Example 113, N-({(1r,4r)-4-[6-(4-{8-[3-(2,4-dioxo-1,3-diazinan-1-yl)-4-methylbenzoyl]-8-azaspiro[4.5]decan-2-yl}piperazin-1-yl)-2H-indazol-2-yl]cyclohexyl}methyl)-2,3,5-trifluoro-4-hydroxybenzamide, formate salt] | 79 |
| 2.6 | Cc1ccc(C(=O)N2CCC(CN3CCN(c4ncc(-c5ccc6cn(C78CCC(CNC(=O)c9cc(F)c(O)c(F)c9F)(CC7)CC8)nc6c5)cn4)CC3)CC2)cc1N1CCC(=O)NC1=O [Example 114, N-{[4-(6-{2-[4-({1-[3-(2,4-dioxo-1,3-diazinan-1-yl)-4-methylbenzoyl]piperidin-4-yl}methyl)piperazin-1-yl]pyrimidin-5-yl}-2H-indazol-2-yl)bicyclo[2.2.2]octan-1-yl]methyl}-2,3,5-trifluoro-4-hydroxybenzamide] | 77 |
| 0.87 | O=C1CCN(c2cnn3cc(CCCN4Cc5ccc(-c6ccc7cn([C@H]8CC[C@H](CNC(=O)c9cc(F)c(O)c(F)c9F)CC8)nc7c6)cc5C4)ccc23)C(=O)N1 [Example 131, N-({(1r,4r)-4-[6-(2-{3-[3-(2,4-dioxo-1,3-diazinan-1-yl)pyrazolo[1,5-a]pyridin-6-yl]propyl}-2,3-dihydro-1H-isoindol-5-yl)-2H-indazol-2-yl]cyclohexyl}methyl)-2,3,5-trifluoro-4-hydroxybenzamide, trifluoroacetate salt] | 78 |
| 2.1 | Cn1nc(N2CCC(=O)NC2=O)c2ccc(CCCN3CCN(c4nccc(-c5nc([C@]67CC[C@](CNC(=O)c8cc(F)c(O)c(F)c8F)(CC6)CC7)no5)n4)CC3)cc21 [Example 133, N-[(4-{5-[2-(4-{3-[3-(2,4-dioxo-1,3-diazinan-1-yl)-1-methyl-1H-indazol-6-yl]propyl}piperazin-1-yl)pyrimidin-4-yl]-1,2,4-oxadiazol-3-yl}bicyclo[2.2.2]octan-1-yl)methyl]-2,3,5-trifluoro-4-hydroxybenzamide, trifluoroacetate salt] | 73 |
